From patent US20240173369A1 (priority 2021, published 2024)
≈ marks a conversion by molar mass, not a printed value.

Experiments:
[1] = system: Pseudomonas aeruginosa strains 883, 762, PAO1; assay: Synergism with antibiotic in liquid infection (OD600 growth curves); assay type: cell-based
Procedure: To test the efficacy of the phage and antibiotics in liquid culture, bacterial host cells were grown overnight in TSB at 37° C. with shaking at 180 rpm to OD600>1.5. In addition, each phage was diluted to a concentration of 5×10^7 PFU/ml in TSB and used individually or combined equally with other phages into a cocktail. Then, 1 mM ions were added, and 200 μL was dispensed per well in a 96-well plate to a final concentration of […]. For no phage control (NPC), TSB containing 1 mM ions was used. Antibiotics was added to the relevant wells (aztreonam 4 μg/mL, colistin 2 μg/mL for “883,” 4 μg/mL for “762” and 6 μg/mL for PAO1). Then, 2 μL of the bacterial culture was added to the wells (dilution of 1:100). TSB containing 1 mM ions was used as NPC. Two repeats were done for each treatment, and TSB media served as a blank. 50 μL of mineral oil added were added to each well to reduce evaporation of the samples, and the plate was covered with a sterile film to allow for bacterial growth and keep the culture sterile. Plates were incubated for approximately 30 hours in a plate reader at 37° C. with shaking, and OD600 was measured every 20 minutes. Two biological repeats were performed for the assay.

[2] = system: P. aeruginosa embedded in pre-formed biofilm; assay: Viability of P. aeruginosa embedded in pre-formed biofilm (BacTiter-Glo); assay type: cell-based, Pseudomonas aeruginosa; conditions: 24 h biofilm, 6 hours treatment; RLU converted to cCFU
Procedure: To test the effect of phage on biofilm, starters of the relevant bacteria were grown overnight. Three isolated single colonies of the relevant strains were picked into 3 mL TSB and shook overnight at 37° C., 180 rpm, to an OD600>1, one starter used for each of two biological repeats. The next day, the starters were dispersed in 96 wells plate and the biofilm was left to form for 24 hours: cultures were diluted 1:100 in 3 mL fresh TSB (Tryptic Soy Broth) medium and OD600 was adjusted to ˜0.05 (˜4×10^7 CFU/mL). 200 μL of the diluted inoculums were added per well in a 96 well culture plate (Biofil, cat #TCP-011-096) according to the plate layout. 200 μL TSB was used for blank wells. […] After the incubation period, the supernatant was carefully removed (media, waste, phages/antibiotics, and planktonic cells) the biofilm was washed again with 200 μL PBS (Phosphate-buffered saline, Hylabs, cat #BP655) and its biomass measured (staining with crystal violet (CV) and/or viable cells (plating for CFU enumeration).
For host cells viability assessment, the BacTiter-Glo (Promega, cat #G8231) method was used. The method measures viable bacterial cells based on quantification of the ATP present in the viable cells. The readout is a luminescent signal (in relative light units (RLU)) in an ATP-dependent reaction. […]

P. aeruginosa = assay: Minimal inhibitory concentration; assay type: cell-based; conditions: Pseudomonas aeruginosa

C[C@H]1[C@H](NC(=O)/C(=N\OC(C)(C)C(=O)O)c2csc(N)n2)C(=O)N1S(=O)(=O)O [aztreonam]
effect on bacterial growth / appearance of bacteria mutants ([1]; PsA strains (e.g., PAO1, 883)): slower bacterial growth throughout the observed period

NC[C@H]1O[C@H](O[C@H]2[C@H](O)[C@@H](O[C@H]3O[C@H](CO)[C@@H](O)[C@H](N)[C@H]3O)[C@H](N)C[C@@H]2N)[C@H](N)C[C@@H]1O [Tobramycin, tobramycin]
time growth was suppressed ([1]; PsA strains, single treatment alone): approximately 25 hours

C[C@@H](O)[C@H]1C(=O)N2C(C(=O)O)=C(SCCN=CN)C[C@H]12 [antibiotic, imipenem]
reduction of bacterial burden of embedded PsA [2]: ~1 logs | MIC (P. aeruginosa): 4 µg/mL (≈ 13.4 µM)
